Measured values published in patent publication US8604044B2, “Quinazoline based EGFR inhibitors containing a zinc binding moiety” (Curis, Inc., priority 2006, dated 2013).
pIC50: −log10 of the molar value.

System: HDAC
Assay: HDAC fluorimetric assay (HDAC enzymatic activity, HeLa nuclear extract)
Assay type: biochemical
Settings: HeLa nuclear extract; read-out: HDAC IC50 grading
Description: HDAC inhibitors were screened using an HDAC fluorimetric assay kit (AK-500, Biomol, Plymouth Meeting, Pa.).
Each assay was setup as follows: Defrosted all kit components and kept on ice until use. […] Prepared dilutions of Trichostatin A (TSA, positive control) and tested compounds in assay buffer (5× of final concentration). Diluted Fluor de Lys™ Substrate in assay buffer to 100 uM (50 fold=2× final). Diluted Fluor de Lys™ developer concentrate 20-fold (e.g. 50 μl plus 950 μl Assay Buffer) in cold assay buffer. Second, diluted the 0.2 mM Trichostatin A 100-fold in the 1× Developer (e.g. 10 μl in 1 ml; final Trichostatin A concentration in the 1× Developer=2 μM; final concentration after addition to HDAC/Substrate reaction=1 μM). Added Assay buffer, diluted trichostatin A or test inhibitor to appropriate wells of the microtiter plate. Added diluted HeLa extract or other HDAC sample to all wells except for negative controls.

Row | Structure (SMILES) | pIC50
1 | COc1cc2ncnc(Nc3ccc(F)c(Cl)c3)c2cc1NC(=O)Nc1ccc(C(=O)NO)cc1 [Compound 93] | 5.00 to 6.00
2 | C#Cc1cccc(Nc2ncnc3cc(OC)c(OCCCCC(=O)NO)cc23)c1 [Compound 10, 5-(4-(3-Ethynylphenylamino)-7-methoxyquinazolin-6-yloxy)-N-hydroxypentanamide] | 6.00 to 7.00
3 | C#Cc1cccc(Nc2ncnc3cc(OC)c(OCCCC(=O)NO)cc23)c1 [Compound 9, 4-(4-(3-ethynylphenylamino)-7-methoxyquinazolin-6-yloxy)-N-hydroxybutanamide] | 6.00 to 7.00
4 | COc1cc2ncnc(Nc3ccc(F)c(Cl)c3)c2cc1OCCCCCCC(=O)N(C)O [Compound 94] | < 5.00
5 | COc1cc2ncnc(Nc3ccc(F)c(Cl)c3)c2cc1Oc1ccc(C#CCCCC(=O)NO)cc1 [Compound 205] | 5.00 to 6.00
6 | C[C@@H](Nc1ncnc2ccc(OCCCCCC(=O)NO)cc12)c1ccccc1 [Compound 78, (R)—N-hydroxy-6-(4-(1-phenylethylamino)-quinazolin-6-yloxy)hexanamide] | > 7.00
7 | COc1cc2ncnc(Nc3ccc(F)c(Cl)c3)c2cc1OCCNCc1ccc(C(=O)NO)cc1 [Compound 107] | 6.00 to 7.00
8 | COc1cc2ncnc(N[C@H](C)c3ccc(Cl)cc3)c2cc1OCCCCCCC(=O)NO [Compound 82, (R)-7-(4-(1-(4-chlorophenyl)ethylamino)-7-methoxyquinazolin-6-yloxy)-N-hydroxyheptanamide] | 6.00 to 7.00
9 | COc1cc2ncnc(Nc3ccc(F)c(Cl)c3)c2cc1OCCCCC(=O)NO [Compound 4] | 6.00 to 7.00
10 | COc1cc2ncnc(NCc3ccc(F)cc3)c2cc1OCCCCCCC(=O)NO [Compound 86, 7-(4-(4-fluorobenzylamino)-7-methoxyquinazolin-6-yloxy)-N-hydroxyheptanamide] | > 7.00
11 | C#Cc1cccc(Nc2ncnc3cc(OCCOC)c(OCCCCCCC(=O)NO)cc23)c1 [Compound 36, 7-(4-(3-Ethynylphenylamino)-7-(2-methoxyethoxy)quinazolin-6-yloxy)-N-hydroxyheptanamide] | > 7.00
12 | O=C(CCCCCOc1ccc2ncnc(Nc3ccc(F)c(Cl)c3)c2c1)NO [Compound 17, 6-(4-(3-Chloro-4-fluorophenylamino)quinazolin-6-yloxy)-N-hydroxyhexanamide] | > 7.00
13 | COc1cc2ncnc(N[C@@H](C)c3ccccc3)c2cc1OCCCCCCC(=O)NO [Compound 80, (S)—N-hydroxy-7-(7-methoxy-4-(1-phenylethylamino)quinazolin-6-yloxy)heptanamide] | > 7.00
14 | COc1cc2ncnc(Nc3ccc(F)c(Cl)c3)c2cc1OCCCCCC(=O)NO [Compound 5] | > 7.00
15 | COc1cc2ncnc(Nc3ccc(F)c(Cl)c3)c2cc1OCCCC(=O)NO [Compound 3, 4-(4-(3-Chloro-4-fluorophenylamino)-7-methoxyquinazolin-6-yloxy)-N-hydroxybutanamide] | < 5.00
16 | C#Cc1cccc(Nc2ncnc3cc(OC)c(OCCC(=O)NO)cc23)c1 [Compound 8] | < 5.00
17 | O=C(/C=C/c1ccc(OCCOc2ccc3ncnc(Nc4ccc(F)c(Cl)c4)c3c2)cc1)NO [Compound 63] | 6.00 to 7.00
18 | COc1cc2ncnc(Nc3ccc(F)c(Cl)c3)c2cc1-c1ccc(C#CCCC(=O)NO)o1 [Compound 124] | < 5.00
19 | COc1cc2ncnc(Nc3ccc(F)c(Cl)c3)c2cc1OCCCCCCN(O)C(C)=O [Compound 103, N-(6-(4-(3-chloro-4-fluorophenylamino)-7-methoxyquinazolin-6-yloxy)hexyl)-N-hydroxyacetamide] | < 5.00
20 | COc1cc2ncnc(Nc3ccc(F)c(Cl)c3)c2cc1OCCN(CCO)CCCC(=O)NO [Compound 118] | 5.00 to 6.00
21 | C#Cc1cccc(Nc2ncnc3ccc(OCCCCC(=O)NO)cc23)c1 [Compound 22] | > 7.00
22 | COc1cc2ncnc(Nc3ccc(F)c(Cl)c3)c2cc1OCCNCc1ccc(C#CC(=O)NO)cc1 [Compound 121] | < 5.00
